Experimental data as given in PubChem BioAssay AID2305 (GlaxoSmithKline (GSK), 2010).

Each molecule was assayed on P. falciparum 3D7 growth, pLDH absorbance (assay: P. falciparum 3D7 growth inhibition, dose response, strain 3D7 (AID 2305)).

In order of rising IC50:
1. O=c1ccc2ccc(O)c(O)c2o1  30 nM
2. CCCN(CCC)C(=O)c1cc(C(=O)N[C@@H](Cc2ccccc2)[C@H](O)CNC(C)(C)c2cccc(OC)c2)cc(N2CCCCS2(=O)=O)c1  30 nM
3. COc1cc(NC(=O)/C=C/c2cc(F)cc(F)c2F)cc(OCCN2CCCCC2)c1  150 nM
4. CC(C)(C)c1ccc(Cn2c(=N)n(CC(=O)c3ccc(-c4ccccc4)cc3)c3ccccc32)cc1  160 nM
5. OCCNc1nc(Nc2ccc(F)cc2)nc2ccccc12  160 nM
6. O=C(Nc1cn(-c2ccc(OCc3cccc(F)c3)c(Cl)c2)c2ncncc12)c1ccncc1  170 nM
7. CCCc1cc(N2CCC(N(CC)CC)C2)nc(Nc2ccc(OC)cc2)n1 (stereo not given)  170 nM
8. CC(=O)Nc1ccc(C(=O)Nc2cccc(-c3ccc(-c4nc5c(C)cccc5[nH]4)cc3)c2)cn1  190 nM
9. COCCCNc1nc2cc(OC)c(OC)cc2c2nc(-c3ccccc3)nn12  190 nM
10. CC(C)NCc1ccc(-c2ccc(-c3nc4ccc(F)cc4[nH]3)cc2)cc1  210 nM
11. CC(C)NCc1ccc(-c2cccc(-c3nc4ccccc4[nH]3)c2)cc1  230 nM
12. CCOc1ccc(-c2nonc2NC(=O)c2ccccc2OC)cc1OCC  240 nM
13. Nc1ncc(-c2cccc(CCN3CCOCC3)c2)cc1-c1nc2ccc(Br)cc2[nH]1  280 nM
14. Cc1cccc2[nH]c(-c3cccc(-c4cccc(CNCc5ccc(S(C)(=O)=O)cc5)c4)c3)nc12  300 nM
15. Cc1ccc(Oc2ccc(NC(=O)CNc3ccccc3N3CCCC3=O)cc2)cc1  370 nM
16. Cc1ccc(NC(=O)Nc2ccc(Cl)cc2)cc1-c1ccc(C(=O)Nc2ccncc2)cc1  530 nM
17. COc1cc(F)c2nccc([C@@H](O)CN3CCC(NCc4ccc5c(n4)NC(=O)CS5)CC3)c2c1  560 nM
18. CCOc1ccc(OCC)c(N2CCN(CCCCNC(=O)c3ccc(NC(=O)c4ccc(Cl)cc4)cc3)CC2)c1  590 nM
19. CS(=O)(=O)Nc1ccc2c(C3CCN(CCC4CCN(C(=O)/C=C/c5ccc(Cl)c(Cl)c5)CC4)CC3)c[nH]c2c1  600 nM
20. OC(CN1c2ccccc2Sc2ccccc21)CN(C1CCCCC1)C1CCCCC1 (stereo not given)  650 nM
21. Cc1cc(N2CCC(NS(=O)(=O)c3ccc(F)cc3)CC2)nc(Nc2cccc(C#N)c2)n1  650 nM
22. CC(C)CNCc1ccc(-c2ccc(CN(C(=O)Nc3ccccc3)C3CCN(Cc4ccccc4)CC3)cc2)cc1  680 nM
23. Cc1onc(-c2ccccc2)c1C(=O)Nc1nc(-c2ccccn2)nc2ccsc12  690 nM
24. COc1ccc(Cl)c(CC2c3cc(O)c(Cl)cc3CCN2C)c1 (stereo not given)  700 nM
25. O=C(NCCCCN1CCC(C(c2ccccc2)c2ccccc2)CC1)c1ccc(NC(=O)c2ccc(Cl)cc2)cc1  770 nM
26. COc1cccc(Nc2c(C(N)=O)cnc3ccc(-c4ccccc4)cc23)c1  770 nM
27. CC(C)CN(Cc1c(O)ccc2[nH]c(-c3ccc(F)cc3F)nc12)CC(C)C  800 nM
28. Cc1ccc(O)c(-c2cc(C(=O)Nc3ccc(S(=O)(=O)N4CCCCC4)cc3)[nH]n2)c1  810 nM
29. CCCN(CCC)C(=S)N=Nc1c(O)[nH]c2ccccc12  810 nM
30. CCC(C)NCC(O)(c1ccc(Cl)cc1)c1ccc(Cl)cc1 (stereo not given)  840 nM
31. O=C(/C=C/c1ccc(Cl)c(Cl)c1)NCCCCCCN1CCCN(C(=O)Nc2cccc(Cl)c2)CC1  860 nM
32. Cc1nn(-c2ccnc3cc(Cl)ccc23)c(C)c1C(=O)NCc1cc(Cl)cc(Cl)c1  870 nM
33. c1cc(CN2CCCCC2)cc(-c2ccc(-c3nc4ccccc4[nH]3)s2)c1  870 nM
34. COc1ccc(CNC2CCN(C)CC2)cc1-c1ccc(S(=O)(=O)NC2CCC2)cc1  880 nM
35. CC(=O)Nc1ccc(CN2CCC(NC(=O)c3ccc(-c4cccc(C(F)(F)F)c4)s3)CC2)cc1  890 nM
36. CC(C)CNCc1ccc(-c2cccc(CNc3ccc4ncccc4c3)c2)cc1  910 nM
37. N#Cc1ccc(N2CCN(Cc3ccc(-c4cccc(-c5nc6ccccc6[nH]5)c4)cc3)CC2)nc1  910 nM
38. NCC1CCCN1Cc1ccc(-c2ccc(-c3nc4ccc(F)cc4[nH]3)cc2)cc1 (stereo not given)  930 nM
39. O=S(=O)(NCCN1CCCC1)c1ccc(-c2cccc(CNC3Cc4ccccc4C3)c2)cc1F  1020 nM
40. CC(C)NC(=O)Cn1cc(C2CCN(CC3CCN(C(=O)/C=C/c4ccc(Cl)c(Cl)c4)CC3)CC2)c2ccccc21  1030 nM
41. COc1ccc(-c2cc3ncn(CC(=O)N4CCN(c5cccc(OC)c5)CC4)c(=O)c3s2)cc1  1060 nM
42. CC(C)C1C(O)=C(c2ccc3ccccc3c2)C(=O)N1Cc1ccsc1 (stereo not given)  1070 nM
43. CC(C)Cn1c(Sc2ccc(C#N)c([N+](=O)[O-])c2)nnc1-c1ccccc1  1090 nM
44. Cc1cc(N2CCCC2)nc(Nc2ccc(NC(=O)C(C)C)cc2)n1  1100 nM
45. CN(C)Cc1ccc2nc(-c3cccc(Cc4cc(Cl)ccc4OCc4ccc(Cl)cc4F)n3)[nH]c2c1  1130 nM
46. CCCCCn1c(Sc2ccc(C#N)c([N+](=O)[O-])c2)nnc1-c1ccc(OC)cc1  1140 nM
47. CCOc1cc(Cc2cnc(N)nc2N)cc(OCC)c1O  1170 nM
48. O=C(Cc1cn(-c2ccccc2)nc1-c1ccc(Cl)cc1)Nc1nccs1  1200 nM
49. COc1cc2c(cc1OC)CN(CCCCc1ccc(NC(=O)c3cc(Cl)cc(Cl)c3)cc1)CC2  1200 nM
50. CC(C)COc1ccc(Cl)cc1Cc1ccc(-c2nc3ccc(Br)cc3[nH]2)o1  1400 nM
